Measurements published in patent US20250195628A1, “ANALYTICAL METHOD AND THERAPEUTICAL AGENT FOR USE IN COMBINATION WITH L-ASPARAGINASE IN TUMOUR THERAPY” (Medizinische Hochschule Hannover, priority 2022, published 2025).

Columns and labels:
[1] = tested on: Cas9-expressing Jurkat cells; assay: Cell viability after UBR2 knock-out by sgRNA and L-asparaginase treatment, Jurkat; format: cell-based, human; details: 100 U/L L-asparaginase, 48 h, versus sgAAVS1, FIG. 4A
Procedure: (§1) Cas9-expressing Jurkat cells or T-ALL cells (CCRF-CEM) were treated with sgRNA that specifically knocked-out UBR2 (sgUBR2 #3, […], SEQ ID NO: 3) or control sgRNA directed against the safe harbor control locus AAVS1 (sgAAVS1, 5′-[…]-3′, SEQ ID NO: 4), and after knock-out of UBR2 cells were incubated under cell-culture conditions with 100 U/L L-asparaginase (Asp) or PBS as control agent (Vehicle). Cell viability was analysed by Trypan blue exclusion after 48 h of incubation.
(§2) FIG. 4A for Jurkat cells, FIG. 4B for the T-ALL cells depict the cell viability normalized to the cell viability for Vehicle. […] P-values reflect the comparison of control inhibitor (AAVS1) and inhibitor of UBR2 (sgUBR2), calculated using a two-way ANOVA with Sidak's adjustments for multiple comparisons.

T-ALL cells (CCRF-CEM) = assay: Cell viability after UBR2 knock-out by sgRNA and L-asparaginase treatment, CCRF-CEM; format: cell-based, human; details: 100 U/L L-asparaginase, 48 h, versus sgAAVS1, FIG. 4B
Procedure: as §1, §2

Substance: sgUBR2 #3: sgRNA that specifically knocked-out UBR2, GAAACTTGAAATAGTCTAAA, SEQ ID NO: 3 (listed as DNA, chemistry not given here)
- effect on sensitivity for L-asparaginase (cell viability normalized to Vehicle) [1]: increased the sensitivity
- effect on sensitivity for L-asparaginase (cell viability normalized to Vehicle) (T-ALL cells (CCRF-CEM)): increased the sensitivity
